One test deals with T1, V600E full-length B-Raf (Homo sapiens, UniProt P15056, V600E).
T1 construct: 1 μM FSBA-MEK and 20 nM V600E full-length B-Raf; made in house; host or cells: Sf9 insect cells (baculovirus)
In words: B-Raf IC50 assay (incorporation of 33P phosphate into FSBA-modified MEK). It is filed as biochemical. An excerpt: Determining the activity of Raf in the sample is possible by a number of direct and indirect detection methods (US 2004/0082014). Activity of human recombinant B-Raf protein may be assessed in vitro by assay of the incorporation of radio labeled phosphate to recombinant MAP kinase (MEK), a known physiologic substrate of B-Raf, according to US 2004/0127496 and WO 03/022840. The activity/inhibition of V600E full-length B-Raf was estimated by measuring the incorporation of radio labeled phosphate from [γ-^33P]ATP into FSBA-modified wild-type MEK (see Example A).
Activity of human recombinant B-Raf protein may be assessed in vitro by assay of the incorporation of radio labeled phosphate to recombinant MAP kinase (MEK), a known physiologic substrate of B-Raf, according to US 2004/0127496 and WO 03/022840. Catalytically active human recombinant B-Raf protein is obtained by purification from sf9 insect cells infected with a human B-Raf recombinant baculovirus expression vector.
The activity/inhibition of V600E full-length B-Raf was estimated by measuring the incorporation of radio labeled phosphate from [γ-^33P]ATP into FSBA-modified wild-type MEK. The 30-μL assay mixtures contained 25 mM Na Pipes, pH 7.2, 100 mM KCl, 10 mM MgCl2, 5 mM β-glycerophosphate, 100 μM Na Vanadate, 4 μM ATP, 500 nCi [γ-^33P]ATP, 1 μM FSBA-MEK and 20 nM V600E full-length B-Raf. Incubations were carried out at 22° C. in a Costar 3365 plate (Corning). Prior to the assay, the B-Raf and FSBA-MEK were preincubated together in assay buffer at 1.5× (20 μL of 30 nM and 1.5 μM, respectively) for 15 minutes, and the assay was initiated by the addition of 10 μL of 10 μM ATP. Following the 60-minute incubation, the assay mixtures were quenched by the addition of 100 μL of 25% TCA, the plate was mixed on a rotary shaker for 1 minute, and the product was captured on a Perkin-Elmer GF/B filter plate using a Tomtec Mach III Harvester. After sealing the bottom of the plate, 35 μL of Bio-Safe II (Research Products International) scintillation cocktail were added to each well and the plate was top-sealed and counted in a Topcount NXT (Packard).

For test [1], the system named is basal ERK1/2 phosphorylation in Malme-3M cells. In words: Cellular ERK 1/2 phosphorylation assay. Conditions: Homo sapiens, 1 h, pERK normalized to total ERK. It is filed as cell-based. The procedure: Inhibition of basal ERK1/2 phosphorylation was determined by the following in vitro […], which comprises incubating cells with a compound of Formula II for 1 hour and quantifying the fluorescent pERK signal on fixed cells and normalizing to total ERK signal.
Materials and Methods: Malme-3M cells were obtained from ATCC and grown in RPMI-1640 supplemented with 10% fetal bovine serum. Cells were plated in 96-well plates at 24,000 cells/well and allowed to attach for 16-20 hours at 37° C., 5% CO2. The media was removed, and DMSO-diluted compounds were added in RPMI-1640 at a final concentration of 1% DMSO. The cells were incubated with the compounds for 1 hour at 37° C., 5% CO2. The cells were washed with PBS and fixed in 3.7% formaldehyde in PBS for 15 minutes. This was followed by washing in PBS/0.05% Tween20 and permeabilizing in −20° C. 100% MeOH for 15 minutes. Cells were washed in PBS/0.05% Tween20 then blocked in Odyssey blocking buffer (LI-COR Biosciences) for 1 hour. Antibodies to phosphorylated ERK (1:400, Cell Signaling #9106, monoclonal) and total ERK (1:400, Santa Cruz Biotechnology #sc-94, polyclonal) were added to the cells and incubated 16-20 hours at 4° C. After washing with PBS/0.05% Tween20, the cells were incubated with fluorescently-labeled secondary antibodies (1:1000 goat anti-rabbit IgG-IRDye800, Rockland and 1:500 goat anti-mouse IgG-Alexa Fluor 680, Molecular Probes) for an additional hour. Cells were then washed and analyzed for fluorescence at both wavelengths using the Odyssey Infrared Imaging System (LI-COR Biosciences). Phosphorylated ERK signal was normalized to total ERK signal.

[2] abbreviates: B-Raf V600E, bound less than 1 μM, read-out: IC50.
The mark [3] stands for this setting: Example A assay, 4 μM ATP, 20 nM enzyme, 60-minute incubation, read-out: BRAF V600E IC50.

Where two headings read alike, the source gives them in different places. A value given as a limit tells only on which side of the number the result lay.

T1 sequence (P15056 whole entry V600E): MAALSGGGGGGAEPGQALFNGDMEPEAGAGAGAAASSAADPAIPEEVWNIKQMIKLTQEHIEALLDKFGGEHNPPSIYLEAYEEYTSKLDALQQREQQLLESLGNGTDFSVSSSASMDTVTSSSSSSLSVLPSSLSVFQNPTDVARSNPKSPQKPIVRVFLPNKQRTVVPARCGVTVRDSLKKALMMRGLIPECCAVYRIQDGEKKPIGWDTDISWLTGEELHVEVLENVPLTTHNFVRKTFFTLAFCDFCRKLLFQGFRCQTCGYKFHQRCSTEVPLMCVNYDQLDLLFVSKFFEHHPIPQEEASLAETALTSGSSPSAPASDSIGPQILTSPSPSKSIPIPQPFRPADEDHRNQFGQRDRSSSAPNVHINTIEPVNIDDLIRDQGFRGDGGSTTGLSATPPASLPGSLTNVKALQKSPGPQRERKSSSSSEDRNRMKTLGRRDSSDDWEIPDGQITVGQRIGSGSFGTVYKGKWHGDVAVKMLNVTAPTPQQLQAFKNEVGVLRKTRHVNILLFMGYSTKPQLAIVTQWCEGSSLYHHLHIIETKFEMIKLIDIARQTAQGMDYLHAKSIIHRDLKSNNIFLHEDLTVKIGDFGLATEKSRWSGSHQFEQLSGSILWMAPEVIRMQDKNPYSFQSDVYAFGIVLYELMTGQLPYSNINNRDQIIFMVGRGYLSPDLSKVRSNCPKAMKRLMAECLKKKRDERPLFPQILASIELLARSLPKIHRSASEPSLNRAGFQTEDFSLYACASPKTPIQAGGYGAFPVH

For `CCCS(=O)(=O)Nc1ccc(F)c(NC(=O)Nc2ncnc3sccc23)c1F` [Example 17, Propane-1-sulfonic acid [2,4-difluoro-3-(3-thieno[2,3-d]pyrimidin-4-yl-ureido)-phenyl]-amide], the IC50 was under 1000 nM on V600E full-length B-Raf (setting [2]), 97.9 nM at V600E full-length B-Raf (setting [3]), under 500 nM in test [1] (bound less than 500 nM) and under 1000 nM in test [1] (bound less than 1 μM).

Consider `CCCS(=O)(=O)Nc1ccc(F)c(NC(=O)Nc2ncnc3sc4c(c23)CCC4)c1F` [Example 19, Propane-1-sulfonic acid {3-[3-(6,7-dihydro-5H-cyclopenta[4,5]thieno[2,3-d]pyrimidin-4-yl)-ureido]-2,4-difluoro-phenyl}-amide], for which the IC50 at V600E full-length B-Raf (setting [2]) is under 1000 nM; at V600E full-length B-Raf (setting [3]), 25.2 nM; in test [1], 176 nM; in test [1] (bound less than 500 nM), under 500 nM; in test [1] (bound less than 1 μM) it was under 1000 nM.

For the molecule `CCCS(=O)(=O)Nc1ccc(F)c(NC(=O)Nc2ncnc3sc(C)c(C)c23)c1F` [Example 20, Propane-1-sulfonic acid {3-[3-(5,6-dimethyl-thieno[2,3-d]pyrimidin-4-yl)-ureido]-2,4-difluoro-phenyl}-amide], the IC50 at V600E full-length B-Raf (setting [2]) is under 1000 nM; at V600E full-length B-Raf (setting [3]), 28.2 nM; in test [1] (bound less than 1 μM) it was under 1000 nM.

Turning to `CCCS(=O)(=O)Nc1ccc(Cl)c(NC(=O)Nc2ncnc3oc(C)c(C)c23)c1F` [Example 21, Propane-1-sulfonic acid {4-chloro-3-[3-(5,6-dimethyl-furo[2,3-d]pyrimidin-4-yl)-ureido]-2-fluoro-phenyl}-amide], the IC50 was under 1000 nM on V600E full-length B-Raf (setting [2]), 90.8 nM on V600E full-length B-Raf (setting [3]), 522 nM in test [1] and under 1000 nM in test [1] (bound less than 1 μM).

With `CCCS(=O)(=O)Nc1ccc(Cl)c(NC(=O)Nc2ncnc3sccc23)c1F` [Example 22, Propane-1-sulfonic acid [4-chloro-2-fluoro-3-(3-thieno[2,3-d]pyrimidin-4-yl-ureido)-phenyl]-amide], the half-inhibitory concentration (IC50) at V600E full-length B-Raf (setting [2]) was under 1000 nM; at V600E full-length B-Raf (setting [3]), 18.8 nM; in test [1] (bound less than 500 nM), under 500 nM; in test [1] (bound less than 1 μM), under 1000 nM.

By IC50 is commonly meant the point on the concentration scale where inhibition reaches its midpoint.
